{"source": "patent US20110275798A1", "about": "“Method for Determination of Sirolimus Stability and Process for Preparing Its Stable Form” (priority 2009, published 2011)", "experiment": "Stability (degradation) of sirolimus solid forms", "type": "physicochemical", "data": [{"smiles": "CO[C@H]1C[C@@H]2CC[C@@H](C)[C@@](O)(O2)C(=O)C(=O)N2CCCC[C@H]2C(=O)O[C@H]([C@H](C)C[C@@H]2CC[C@@H](O)[C@H](OC)C2)CC(=O)[C@H](C)/C=C(\\C)[C@@H](O)[C@@H](OC)C(=O)[C@H](C)C[C@H](C)/C=C/C=C/C=C/1C", "note": "[sirolimus]", "values": [{"measurement": "stability (degradation)", "setting": "amorphous form", "value": "degrades at a fast rate"}, {"measurement": "stability (degradation)", "setting": "crystalline form", "value": "substantially stable"}]}]}
